Reference: patent US20200163984A1, “USE OF ISOVALERYL SPIRAMYCIN I, II AND/OR III IN MANUFACTURING MEDICAMENT FOR TREATING AND/OR PREVENTING TUMOR, AND MEDICAMENT” (SHENYANG FUYANG PHARMACEUTICAL TECHNOLOGY CO., LTD., priority 2017, published 2020)
Read-outs that look alike come from different tables or passages of the source.

Test system: transplanted tumor of human glioblastoma cell A172
Conditions: for tumor volume and relative tumor volume compared with the model group: low, medium and high doses, P<0.05; for Tumor Volume (mm3) (d 1): d1; for mouse weight compared with the model group / Body Weight (g) (d1) / Body Weight (g) (d30): in vivo, mouse
Protocol: Then cell concentration was adjusted to 1×10^7/ml with matrigel, then each nude mouse was inoculated subcutaneously with 0.2 ml of cells at its right armpit and recorded as the first day of inoculation. When the tumor grows to be greater than or equal to 100 mm^3, the mice were randomly divided into 11 groups with 6 mice in each group: a model group, a temozolomide group, […], […], […] Each group was continuously administered intragastrically for 30 days with a dose of 20 ml/kg. The mice were sacrificed the next day after drug withdrawal and the indicators were tested. The long diameter and short diameter of the tumor, and the body weight of each mouse were recorded every 3 days from drug administration to nude mouse sacrifice.
The body weight of the nude mice and the long diameter (a) and short diameter (b) of the transplanted tumor were measured every 3 days, and the tumor volume (v), relative tumor volume (RTV) and relative tumor proliferation rate (T/C) are calculated respectively according to the following formulas, wherein V=a×b^2/2; RTV=V/V0 (V0 is the tumor volume before administration, V is the tumor volume before sacrifice), and T/C (%)=treatment group RTV/model control group RTV×100%.
Each mouse was weighed and sacrificed. After the tumor was completely stripped off from the body of the mouse, the non-tumor tissues such as blood stains and fat were removed to weigh the tumor and calculate the tumor growth inhibition rate. The average tumor weight of each group of mice is used as an indicator of efficacy. Tumor growth inhibition rate (%)=(1−the average tumor weight of the treatment group/the average tumor weight of the model group)×100%.

[1] = A172, high dose (100 mg/kg in method) i.g. 30 days
[2] = A172, low dose (25 mg/kg in method) i.g. 30 days
[3] = A172, medium dose (50 mg/kg in method) i.g. 30 days

| SMILES | Relative Tumor Proliferation Rate (T/C) [1] [%] | tumor growth inhibition rate [1] [%] | Relative Tumor Proliferation Rate (T/C) [2] [%] | tumor growth inhibition rate [2] [%] | tumor volume and relative tumor volume compared with the model group (A172) | Relative Tumor Proliferation Rate (T/C) [3] [%] | tumor growth inhibition rate [3] [%] | Inhibition Rate (%) (A172 nude mice, 12.5 mg/kg) | Relative Tumor Proliferation Rate (T/C) (A172 nude mice, 12.5 mg/kg) [%] | Relative Tumor Volume (RTV) (A172 nude mice, 12.5 mg/kg) | Tumor Weight (A172 nude mice, 12.5 mg/kg) [g] | Tumor Volume (mm3) (d 1) (A172 nude mice, 12.5 mg/kg) | Tumor Volume (mm3) (d30) (A172 nude mice, 12.5 mg/kg) | Inhibition Rate (%) (A172 nude mice, 25 mg/kg) | Relative Tumor Proliferation Rate (T/C) (A172 nude mice, 25 mg/kg) [%] | Relative Tumor Volume (RTV) (A172 nude mice, 25 mg/kg) | Tumor Weight (A172 nude mice, 25 mg/kg) [g] | Tumor Volume (mm3) (d 1) (A172 nude mice, 25 mg/kg) | Tumor Volume (mm3) (d30) (A172 nude mice, 25 mg/kg) | Inhibition Rate (%) (A172 nude mice, 50 mg/kg) | further results |
| --- | --- | --- | --- | --- | --- | --- | --- | --- | --- | --- | --- | --- | --- | --- | --- | --- | --- | --- | --- | --- | --- |
| CO[C@@H]1[C@@H](O[C@@H]2O[C@H](C)[C@@H](O[C@H]3C[C@@](C)(O)[C@@H](OC(=O)CC(C)C)[C@H](C)O3)[C@H](N(C)C)[C@H]2O)[C@@H](CC=O)C[C@@H](C)[C@@H](O[C@H]2CC[C@H](N(C)C)[C@@H](C)O2)/C=C/C=C/C[C@@H](C)OC(=O)C[C@H]1O [Isovaleryl spiramycin I, isovaleryl spiramycin I] | 25.16 | 68.79 | 74.49 | 30.75 | significantly lower | 43.43 | 44.26 | 30.75 | 74.49 | 12.69 ± 1.08 | 0.96 ± 0.08 | 120.36 ± 10.15 | 1519.32 ± 71.53 | 44.26 | 43.43 | 10.67 ± 1.08 | 0.77 ± 0.09 | 121.90 ± 10.10 | 889.01 ± 195.61 | 68.79 | Relative Tumor Proliferation Rate (T/C) (A172 nude mice, 50 mg/kg): 25.16%; Relative Tumor Volume (RTV) (A172 nude mice, 50 mg/kg): 10.05 ± 0.71; Tumor Weight (A172 nude mice, 50 mg/kg): 0.43 ± 0.07 g; Tumor Volume (mm3) (d 1) (A172 nude mice, 50 mg/kg): 122.38 ± 6.44 mm3; Tumor Volume (mm3) (d30) (A172 nude mice, 50 mg/kg): 513.12 ± 89.49 mm3; mouse weight compared with the model group: no significant changes; Body Weight (g) (d1) (12.5 mg/kg): 21.06 ± 0.43 g; Body Weight (g) (d30) (12.5 mg/kg): 20.34 ± 0.17 g; Body Weight (g) (d1) (25 mg/kg): 20.98 ± 0.73 g; Body Weight (g) (d30) (25 mg/kg): 20.93 ± 0.54 g; Body Weight (g) (d1) (50 mg/kg): 21.00 ± 0.65 g; Body Weight (g) (d30) (50 mg/kg): 20.88 ± 0.58 g |
| COC1C(OC(C)=O)CC(=O)OC(C)CC=CC=CC(OC2CCC(N(C)C)C(C)O2)C(C)CC(CC=O)C1OC1OC(C)C(OC2CC(C)(O)C(OC(=O)CC(C)C)C(C)O2)C(N(C)C)C1O (stereo not drawn) [Isovaleryl spiramycin II, isovaleryl spiramycin II] | 42.18 | 40.01 | 74.24 | 10.85 | significantly lower | 50.59 | 15.71 | 10.85 | 74.24 | 14.73 ± 1.33 | 1.24 ± 0.12 | 123.39 ± 11.22 | 1525.41 ± 255.74 | 15.71 | 50.59 | 14.31 ± 0.98 | 1.17 ± 0.10 | 115.96 ± 11.42 | 984.26 ± 197.97 | 40.01 | Relative Tumor Proliferation Rate (T/C) (A172 nude mice, 50 mg/kg): 42.18%; Relative Tumor Volume (RTV) (A172 nude mice, 50 mg/kg): 12.88 ± 1.54; Tumor Weight (A172 nude mice, 50 mg/kg): 0.84 ± 0.12 g; Tumor Volume (mm3) (d 1) (A172 nude mice, 50 mg/kg): 120.28 ± 10.53 mm3; Tumor Volume (mm3) (d30) (A172 nude mice, 50 mg/kg): 851.14 ± 215.31 mm3; mouse weight compared with the model group: no significant changes; Body Weight (g) (d1) (12.5 mg/kg): 21.36 ± 0.67 g; Body Weight (g) (d30) (12.5 mg/kg): 21.36 ± 0.87 g; Body Weight (g) (d1) (25 mg/kg): 21.10 ± 0.62 g; Body Weight (g) (d30) (25 mg/kg): 21.30 ± 0.89 g; Body Weight (g) (d1) (50 mg/kg): 21.08 ± 0.74 g; Body Weight (g) (d30) (50 mg/kg): 20.97 ± 0.68 g |
| CCC(=O)O[C@@H]1CC(=O)O[C@H](C)C/C=C/C=C/[C@H](O[C@H]2CC[C@H](N(C)C)[C@@H](C)O2)[C@H](C)C[C@H](CC=O)[C@H](O[C@@H]2O[C@H](C)[C@@H](O[C@H]3C[C@@](C)(O)[C@@H](OC(=O)CC(C)C)[C@H](C)O3)[C@H](N(C)C)[C@H]2O)[C@H]1OC [Isovaleryl spiramycin III, isovaleryl spiramycin III] | 40.08 | 59.19 | 66.45 | 15.35 | significantly lower | 52.89 | 32.54 | 15.35 | 66.45 | 13.47 ± 1.67 | 1.18 ± 0.11 | 121.75 ± 9.98 | 1305.51 ± 212.02 | 32.54 | 52.89 | 12.63 ± 1.27 | 0.94 ± 0.12 | 118.81 ± 8.97 | 1047.77 ± 165.77 | 59.19 | Relative Tumor Proliferation Rate (T/C) (A172 nude mice, 50 mg/kg): 40.08%; Relative Tumor Volume (RTV) (A172 nude mice, 50 mg/kg): 10.96 ± 0.82; Tumor Weight (A172 nude mice, 50 mg/kg): 0.57 ± 0.05 g; Tumor Volume (mm3) (d 1) (A172 nude mice, 50 mg/kg): 118.44 ± 6.21 mm3; Tumor Volume (mm3) (d30) (A172 nude mice, 50 mg/kg): 795.73 ± 174.84 mm3; mouse weight compared with the model group: no significant changes; Body Weight (g) (d1) (12.5 mg/kg): 21.54 ± 0.36 g; Body Weight (g) (d30) (12.5 mg/kg): 20.64 ± 0.54 g; Body Weight (g) (d1) (25 mg/kg): 20.98 ± 0.47 g; Body Weight (g) (d30) (25 mg/kg): 21.54 ± 0.72 g; Body Weight (g) (d1) (50 mg/kg): 21.59 ± 0.32 g; Body Weight (g) (d30) (50 mg/kg): 20.67 ± 0.56 g |
